In patent publication US20120070411A1, “SUBSTITUTED NUCLEOTIDE ANALOGS” (Alios BioPharma, Inc., priority 2010, published 2012):
Numbering of substitutions follows the chain as printed.

B1: IFN-Lambda 1 (protein, UniProt Q8IU54 20-200, looked up)
Interferon lambda-1: GPVPTSKPTTTGKGCHIGRFKSLSPQELASFKKARDALEESLKLKNWSCSSPVFPGNWDLRLLQVRERPVALEAELALTLKVLEAAAGPALEDVLDQPLHTLHHILSQLQACIQPQPTAGPRPRGRLHHWLHRLQEAPKKESAGCLEASVTFNLFRLLTRDLKYVADGNLCLRTSTHPEST
B2: IFN-Lambda 2 (protein, UniProt Q8IZJ0 26-200, looked up)
Interferon lambda-2: VPVARLHGALPDARGCHIAQFKSLSPQELQAFKRAKDALEESLLLKDCRCHSRLFPRTWDLRQLQVRERPMALEAELALTLKVLEATADTDPALVDVLDQPLHTLHHILSQFRACIQPQPTAGPRTRGRLHHWLYRLQEAPKKESPGCLEASVTFNLFRLLTRDLNCVASGDLCV
B3: IFN-Lambda 3 (protein, UniProt Q8IZI9 22-196, looked up)
Interferon lambda-3: B2 Interferon lambda-2 with H7R, R49K, H51R, M71V, V95G, F112L, Y135H

tested on: HCV genotype 1b HCV replicon harbored in Huh7 cells; experiment: Combination testing with compound A10 in HCV replicon (CalcuSyn CI and MacSynergy II synergy volume); format: cell-based; conditions: combination of compound A10 with the listed compound; MacSynergy II, Bliss independence; 25-100 synergistic, >100 strongly synergistic
Procedure: Two or more test compounds were tested in combination with each other using an HCV genotype 1b HCV replicon harbored in Huh7 cells with a stable luciferase (LUC) reporter. Cells were cultured under standard conditions in Dulbecco's modified Eagle's medium (DMEM; Mediatech Inc, Herndon, Va.) containing 10% heat-inactivated fetal bovine serum (FBS; Mediatech Inc, Herndon, Va.) 2 mM L-glutamine, and nonessential amino acids (JRH Biosciences). HCV replicon cells were plated in a 96-well plate at a density of 10^4 cells per well in DMEM with 10% FBS. […] The cells were incubated with no compound as a control, with the test compounds, or the combination of compounds for 72 h. The direct effects of the combination of the test compounds were examined using a luciferase (LUC) based reporter as determined by the Bright-Glo Luciferase Assay (Promega, Madison, Wis.). Dose-response curves were determined for individual compounds and fixed ratio combinations of two or more test compounds.
The effects of test compound combinations were evaluated by two separate methods. In the Loewe additivity model, the experimental replicon data was analyzed by using CalcuSyn (Biosoft, Ferguson, Mo.), a computer program based on the method of Chou and Talalay. The program uses the experimental data to calculate a combination index (CI) value for each experimental combination tested. A CI value of <1 indicates a synergistic effect, a CI value of 1 indicates an additive effect, and a CI value of >1 indicates an antagonistic effect.
The second method utilized for evaluating combination effects used a program called MacSynergy II. MacSynergy II software was kindly provided by Dr. M. Prichard (University of Michigan). The Prichard Model allows for a three-dimensional examination of drug interactions and a calculation of the synergy volume (units: μM^2%) generated from running the replicon assay using a checkerboard combination of two or more inhibitors. The volumes of synergy (positive volumes) or antagonism (negative volumes) represent the relative quantity of synergism or antagonism per change in the concentrations of the two drugs. Synergy and antagonism volumes are defined based on the Bliss independence model. In this model, synergy volumes of less than −25 indicate antagonistic interactions, volumes in the −25-25 range indicate additive behavior, volumes in the 25-100 range indicate synergistic behavior and volumes>100 indicate strong synergistic behavior.

First: CCC[C@H](NC(=O)[C@@H]1[C@H]2CCC[C@H]2CN1C(=O)[C@@H](NC(=O)[C@@H](NC(=O)c1cnccn1)C1CCCCC1)C(C)(C)C)C(=O)C(=O)NC1CC1 [VX-950, Telaprevir]
Second: COC(=O)N[C@H](C(=O)N1CCC[C@H]1c1nc(-c2ccc(-c3ccc(-c4c[nH]c([C@@H]5CCCN5C(=O)[C@@H](NC(=O)OC)C(C)C)n4)cc3)cc2)c[nH]1)C(C)C [BMS-790052]
The “Synergy Volume” value of the first is higher: 34 μM^2% for the first, 25 μM^2% for the second.

Going from CNC(=O)c1c(-c2ccc(F)cc2)oc2cc(N(CCO)S(C)(=O)=O)c(C3CC3)cc12 [HCV-796] to C[C@@]1(F)[C@H](O)[C@@H](CO)O[C@H]1n1ccc(N)nc1=O [PSI-6130], the “Synergy Volume” value falls from 35 μM^2% to 21 μM^2%.

Going from COc1nc(N)nc2c1ncn2[C@@H]1O[C@H](COP(=O)(N[C@@H](C)C(=O)OCC(C)(C)C)Oc2cccc3ccccc23)[C@@H](O)[C@@]1(C)O (some centres unmarked) [INX-189] to CCOc1nc(N)nc2c1ncn2[C@@H]1O[C@@H]2COP(=O)(OC(C)C)O[C@H]2[C@@]1(C)F (some centres unmarked) [PSI-938], the “Synergy Volume” value rises from 31 μM^2% to 36 μM^2%.

First: NC(=O)c1ncn([C@@H]2O[C@H](CO)[C@@H](O)[C@H]2O)n1 [Ribavirin, ribavirin]
Second: COc1ccc2c(O[C@@H]3C[C@H]4C(=O)N[C@]5(C(=O)O)C[C@H]5/C=C\CCCCC[C@H](NC(=O)OC5CCCC5)C(=O)N4C3)cc(-c3csc(NC(C)C)n3)nc2c1 [BILN-2061]
The “Synergy Volume” value of the first is lower: 0 μM^2% for the first, 12 μM^2% for the second.

Going from Fc1ccccc1-c1nc2ccn(Cc3ccc(-c4ccc(C(F)(F)F)cc4C(F)(F)F)nn3)cc-2n1 [GS-9190] to CC(C)OC(=O)[C@H](C)NP(=O)(OC[C@H]1O[C@@H](n2ccc(=O)[nH]c2=O)[C@](C)(F)[C@@H]1O)Oc1ccccc1 (some centres unmarked) [PSI-7851], the “Synergy Volume” value falls from 112 μM^2% to 14 μM^2%.

Going from COc1ccc2c(O[C@@H]3C[C@H]4C(=O)N[C@]5(C(=O)NS(=O)(=O)C6CC6)C[C@H]5/C=C\CCCCN(C)C(=O)[C@@H]4C3)cc(-c3nc(C(C)C)cs3)nc2c1C [TMC-435] to CCc1cc(CC[C@]2(C3CCCC3)CC(O)=C(Cc3nc4nc(C)cc(C)n4n3)C(=O)O2)cc(CC)n1 [Filibuvir, FILIBUVIR], the “Synergy Volume” value falls from 104 μM^2% to 38 μM^2%.

Going from CC(C)(C)OC(=O)N[C@H]1CCCCC/C=C\[C@@H]2C[C@@]2(C(=O)NS(=O)(=O)C2CC2)NC(=O)[C@@H]2C[C@@H](OC(=O)N3Cc4cccc(F)c4C3)CN2C1=O [ITMN-191, DANOPREVIR] to CC(C)(C)C#Cc1cc(N(C(=O)[C@H]2CC[C@H](C)CC2)[C@H]2CC[C@H](O)CC2)c(C(=O)O)s1 [VX-222], the “Synergy Volume” value rises from 39 μM^2% to 52 μM^2%.

First: B1
Second: B2
The “Synergy Volume” value of the first is higher: 43 μM^2% for the first, 31 μM^2% for the second.

For B3, the “Synergy Volume” value was 33 μM^2%.
